Measured values published in patent publication US10464922B2, “Metalloenzyme inhibitor compounds” (NQP 1598 LTD., priority 2015, dated 2019).
pIC50: −log10 of the molar value. In brackets after ≈: the same amount, converted by molar mass.

Legend:
[1] = tested on: Hedgehog signaling pathway Gli Reporter-NIH3T3 cells; experiment: Gli luciferase reporter assay, Hedgehog signalling pathway activity; type: cell-based; conditions: mShh 1 μg/ml, 27 hours
Experimental: Hedgehog signaling pathway Gli Reporter-NIH3T3 cells were cultured in DMEM medium with 10% Calf serum, 1% Penn-strep, 500 μg/ml of Geneticin.
To perform the Gli luciferase reporter assay, Gli Reporter—NIH3T3 cells were seeded at 25,000 cells per well into white clear-bottom 96-well microplate in 100 μl of growth medium. Cells were incubated at 37° C., and 5% CO2 for overnight. The next day, remove the medium from wells and add 45 μl of diluted inhibitor in assay medium (Opti-MEM Reduced Serum Medium+0.5% calf serum+1% non-essential amino acids+1 mM Na-pyruvate+10 mM HEPES+1% Pen/Strep) per well. Incubate cells at 37° C. in a CO2 incubator for 2 hours. Then add 5 μl of diluted mShh in assay medium to wells (final [mShh]=1 μg/ml). Add 50 μl of assay medium to cell-free control wells. Cells were treated for 27 hours. After treatment, cells were lysed and luciferase assay was performed using ONE-Step luciferase assay system: add 50 μl of One-Step Luciferase reagent per well and rock at room temperature for ˜30 minutes. Luminescence was measured using a luminometer (BioTek Synergy™ 2 microplate reader). Compounds of the present invention are active in blockade of hedgehog signalling.

A. fumigatus = A. fumigatus MIC at 100% growth inhibition (CLSI M38-A2); type: cell-based, Aspergillus fumigatus; conditions: 100% growth inhibition, range tested 8-0.0078 μg/mL, values given as ranges; for MIC: Aspergillus fumigatus, read-out: Aspergillus fumigatus MIC
Experimental: A. fumigatus MICs were determined at 100% growth inhibition following CLSI guidelines at a concentration range of 8-0.0078 μg/mL (CLSI M38-A2).

C. albicans (ATCC 90028) = experiment: Minimum inhibitory concentration, in vitro broth microdilution assay (CLSI M27-A2); type: cell-based, Candida albicans; conditions: Candida albicans, ATCC90028, 48 h, ATCC 90028; about 50% growth reduction; 2 days at 36° C.; range tested 8-0.0078 μg/mL; values given as ranges; read-out: Candida albicans MIC
How it was run: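 Inoculum of 1×10^3 to 1×10^4 CFU/mL in RPMI-1640+MOPS, exposed to 11 two-fold serial compound concentrations at 2 percent final DMSO, per CLSI M27-A2. After 2 days at 36° C, wells scored visually for growth to give MIC; tested in duplicate.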

Structure (SMILES) | MIC (A. fumigatus) [µg/mL] | MIC (C. albicans (ATCC 90028)) [µg/mL] | Aspergillus fumigatus MIC (A. fumigatus) [µg/mL] | pIC50 [1]
CC[C@@H]([C@H](C)O)n1ncn(-c2ccc(N3CCN(c4ccc(-c5ccc(C(F)(F)C(O)(Cn6cnnn6)c6ccccc6F)nc5)cc4)CC3)cc2)c1=O (mixture of isomers) [Example 38] |  |  |  | 7.42
CC[C@@H]([C@H](C)O)n1ncn(-c2ccc(N3CCN(c4ccc(-c5ccc(C(F)(F)C(O)(Cn6cnnn6)c6cccc(Cl)c6)nc5)cc4)CC3)cc2)c1=O (mixture of isomers) [Example 127, 4-(4-(4-(4-(6-(2-(3-chlorophenyl)-1,1-difluoro-2-hydroxy-3-(1H-tetrazol-1-yl)propyl)pyridin-3-yl)phenyl)piperazin-1-yl)phenyl)-2-((2S,3S)-2-hydroxypentan-3-yl)-2,4-dihydro-3H-1,2,4-triazol-3-one] | > 8 | 0.1 to 1 |  | 7.70
OC(c1cn(-c2ccc(N3CCN(c4ccc(-c5ccc(C(F)(F)[C@](O)(Cn6cnnn6)c6ccc(F)cc6F)nc5)cc4)CC3)cc2)nn1)C(F)(F)F (stereo partly drawn) [Example 94, (2R)-2-(2,4-difluorophenyl)-1,1-difluoro-3-(1H-tetrazol-1-yl)-1-(5-(4-(4-(4-(4-(2,2,2-trifluoro-1-hydroxyethyl)-1H-1,2,3-triazol-1-yl)phenyl)piperazin-1-yl)phenyl)pyridin-2-yl) propan-2-ol] | 0.25 to 1 (≈ 0.331 to 1.33 µM) | 0.0078 to 0.01 (≈ 0.0103 to 0.0133 µM) |  | 
CC[C@@H]([C@H](C)O)n1cc(-c2ccc(N3CCN(c4ccc(-c5ccc(C(F)(F)[C@](O)(Cn6cnnn6)c6ccc(F)cc6F)nc5)cc4)CC3)cc2)nn1 [Example 95, (2S,3S)-3-(4-(4-(4-(4-(6-((R)-2-(2,4-difluorophenyl)-1,1-difluoro-2-hydroxy-3-(1H-tetrazol-1-yl)propyl)pyridin-3-yl)phenyl)piperazin-1-yl)phenyl)-1H-1,2,3-triazol-1-yl) pentan-2-ol] | 0.25 to 1 (≈ 0.337 to 1.35 µM) | 0.0078 to 0.01 (≈ 0.0105 to 0.0135 µM) |  | 
CC(O)C(F)(F)c1ccc(N2CCN(c3ccc(-c4ccc(C(F)(F)[C@](O)(Cn5cnnn5)c5ccc(F)cc5F)nc4)cc3)CC2)cn1 (stereo partly drawn) [Example 99, (2R)-1-(5-(4-(4-(6-(1,1-difluoro-2-hydroxypropyl)pyridin-3-yl)piperazin-1-yl)phenyl)pyridin-2-yl)-2-(2,4-difluorophenyl)-1,1-difluoro-3-(1H-tetrazol-1-yl) propan-2-ol] | 0.25 to 1 (≈ 0.365 to 1.46 µM) | 0.0078 to 0.01 (≈ 0.0114 to 0.0146 µM) |  | 
OC(c1cc(N2CCN(c3ccc(-c4ccc(C(F)(F)[C@](O)(Cn5cnnn5)c5ccc(F)cc5F)nc4)cc3)CC2)ccn1)C(F)(F)F (stereo partly drawn) [Example 104, (2R)-2-(2,4-difluorophenyl)-1,1-difluoro-3-(1H-tetrazol-1-yl)-1-(5-(4-(4-(2-(2,2,2-trifluoro-1-hydroxyethyl)pyridin-4-yl)piperazin-1-yl)phenyl)pyridin-2-yl)propan-2-ol] | 0.25 to 1 (≈ 0.363 to 1.45 µM) | 0.0078 to 0.01 (≈ 0.0113 to 0.0145 µM) |  | 
O=C(Nc1ccc(N2CCN(c3ccc(-c4ccc(C(F)(F)[C@](O)(Cn5cnnn5)c5ccc(F)cc5F)nc4)cc3)CC2)cc1)C(O)CC(F)(F)F (stereo partly drawn) [Example 105, N-(4-(4-(4-(6-((R)-2-(2,4-difluorophenyl)-1,1-difluoro-2-hydroxy-3-(1H-tetrazol-1-yl)propyl)pyridin-3-yl)phenyl)piperazin-1-yl)phenyl)-4,4,4-trifluoro-2-hydroxybutanamide] | > 8 | 0.0078 to 0.01 (≈ 0.0105 to 0.0134 µM) |  | 
CC(C)(C)CC(O)c1ccc(N2CCN(c3ccc(-c4ccc(C(F)(F)[C@](O)(Cn5cnnn5)c5ccc(F)cc5F)nc4)cc3)CC2)cn1 (stereo partly drawn) [Example 118, 1-(5-(4-(4-(6-((R)-2-(2,4-difluorophenyl)-1,1-difluoro-2-hydroxy-3-(1H-tetrazol-1-yl)propyl)pyridin-3-yl)phenyl)piperazin-1-yl)pyridin-2-yl)-3,3-dimethylbutan-1-ol] | 0.25 to 1 (≈ 0.362 to 1.45 µM) | 0.0078 to 0.01 (≈ 0.0113 to 0.0145 µM) |  | 

Second part, led by results:

MIC (A. fumigatus) [µg/mL] | MIC (C. albicans (ATCC 90028)) [µg/mL] | Aspergillus fumigatus MIC (A. fumigatus) [µg/mL] | Structure (SMILES) | pIC50 [1]
0.062 to 0.25 (≈ 0.0837 to 0.337 µM) | 0.01 to 0.1 (≈ 0.0135 to 0.135 µM) |  | CC[C@@H]([C@H](C)O)n1ncn(-c2ccc(N3CCN(c4ccc(-c5ccc(C(F)(F)C(O)(Cn6cnnn6)c6ccc(F)cc6)nc5)cc4)CC3)cc2)c1=O (single isomer, unassigned; (+)) [63(+)] | 6.82
0.25 to 1 (≈ 0.332 to 1.33 µM) | 0.0078 to 0.01 (≈ 0.0103 to 0.0133 µM) |  | O=c1n(CC(F)(F)F)ccn1-c1ccc(N2CCN(c3ccc(-c4ccc(C(F)(F)[C@](O)(Cn5cnnn5)c5ccc(F)cc5F)nc4)cc3)CC2)cc1 [Example 96] | 
0.25 to 1 (≈ 0.33 to 1.32 µM) | 0.0078 to 0.01 (≈ 0.0103 to 0.0132 µM) |  | CCC(C(C)O)n1ccn(-c2ccc(N3CCN(c4ccc(-c5ccc(C(F)(F)[C@](O)(Cn6cnnn6)c6ccc(F)cc6F)nc5)cc4)CC3)cc2)c1=O (stereo partly drawn) [Example 97, 1-(4-(4-(4-(6-((R)-2-(2,4-difluorophenyl)-1,1-difluoro-2-hydroxy-3-(1H-tetrazol-1-yl)propyl)pyridin-3-yl)phenyl)piperazin-1-yl)phenyl)-3-(2-hydroxypentan-3-yl)-1,3-dihydro-2H-imidazol-2-one] | 
> 8 | 0.01 to 0.1 (≈ 0.0139 to 0.139 µM) |  | O[C@@](Cn1cnnn1)(c1ccc(F)cc1F)C(F)(F)c1ccc(-c2ccc(N3CCN(c4ccc5ncn(Cc6ccccc6)c5c4)CC3)cc2)cn1 [Example 98, (R)-1-(5-(4-(4-(1-benzyl-1H-benzo [d]imidazol-6-yl)piperazin-1-yl)phenyl)pyridin-2-yl)-2-(2,4-difluorophenyl)-1,1-difluoro-3-(1H-tetrazol-1-yl) propan-2-ol] | 
0.25 to 1 (≈ 0.354 to 1.42 µM) | 0.0078 to 0.01 (≈ 0.0111 to 0.0142 µM) |  | OC(c1cc(F)cc(N2CCN(c3ccc(-c4ccc(C(F)(F)[C@](O)(Cn5cnnn5)c5ccc(F)cc5F)nc4)cc3)CC2)c1)C(F)(F)F (stereo partly drawn) [Example 100, (2R)-2-(2,4-difluorophenyl)-1,1-difluoro-1-(5-(4-(4-(3-fluoro-5-(2,2,2-trifluoro-1-hydroxyethyl)phenyl)piperazin-1-yl)phenyl)pyridin-2-yl)-3-(1H-tetrazol-1-yl) propan-2-ol] | 
0.062 to 0.25 (≈ 0.0802 to 0.323 µM) | 0.0078 to 0.01 (≈ 0.0101 to 0.0129 µM) |  | CC(C)C(C(C)O)n1ncn(-c2ccc(N3CCN(c4ccc(-c5ccc(C(F)(F)[C@](O)(Cn6cnnn6)c6ccc(F)cc6F)nc5)cc4)CC3)cc2)c1=O (stereo partly drawn) [Example 103, 4-(4-(4-(4-(6-((R)-2-(2,4-difluorophenyl)-1,1-difluoro-2-hydroxy-3-(1H-tetrazol-1-yl)propyl)pyridin-3-yl)phenyl)piperazin-1-yl)phenyl)-2-(2-hydroxy-4-methylpentan-3-yl)-2,4-dihydro-3H-1,2,4-triazol-3-one] | 
0.25 to 1 (≈ 0.331 to 1.32 µM) | 0.0078 to 0.01 (≈ 0.0103 to 0.0132 µM) |  | OC(c1cn(-c2ccc(N3CCN(c4ccc(-c5ccc(C(F)(F)[C@](O)(Cn6cnnn6)c6ccc(F)cc6F)nc5)cc4)CC3)cn2)nn1)C(F)(F)F (stereo partly drawn) [Example 111, (2R)-2-(2,4-difluorophenyl)-1,1-difluoro-3-(1H-tetrazol-1-yl)-1-(5-(4-(4-(6-(4-(2,2,2-trifluoro-1-hydroxyethyl)-1H-1,2,3-triazol-1-yl)pyridin-3-yl)piperazin-1-yl)phenyl)pyridin-2-yl) propan-2-ol] | 
 | 0.01 to 0.1 (≈ 0.0132 to 0.132 µM) | 0.25 to 1.0 | CC[C@@H]([C@H](C)O)n1ncn(-c2ccc(N3CCN(c4ccc(-c5ccc(C(F)(F)[C@](O)(Cn6cnnn6)c6ccc(F)cc6F)nc5)cc4)CC3)cn2)c1=O [Example 124, 4-(5-(4-(4-(6-((R)-2-(2,4-difluorophenyl)-1,1-difluoro-2-hydroxy-3-(1H-tetrazol-1-yl)propyl)pyridin-3-yl)phenyl)piperazin-1-yl)pyridin-2-yl)-2-((2S,3S)-2-hydroxypentan-3-yl)-2,4-dihydro-3H-1,2,4-triazol-3-one] | 
